Experimental data reported in paper PMC9960759, “Discovery of New Boswellic Acid Hybrid 1H-1,2,3-Triazoles for Diabetic Management: In Vitro and In Silico Studies” (Pharmaceuticals, 2023).
Like-named read-outs stand apart in the source and are kept apart here.

How the values were obtained:
[1] = target: α-glucosidase (EC 3.2.1.20)
Description: The α-glucosidase (EC 3.2.1.20; Saccharomyces cerevisiae) assay was carried out using 50 mM of phosphate buffer (pH = 6.8). The test samples were dissolved in DMSO. The enzyme (1U/2mL) dissolved in phosphate buffer: 20 µL/well of enzyme, 20 µL/well of test samples, and 135 µL/well of phosphate buffer were employed in the 96-well plate. After adding all of these into the 96-well plate, followed by 15 min incubation at 37 °C, 25 µL/well of substrate para-nitro phenyl-α-D-glucopyranoside (0.7 mM) was added to the 96-well plate, and measurements were taken at 400 nm for 30 min using a spectrophotometer (xMarkTM Microplate, Bio-Rad, Hercules, CA, USA). As a control, 7% DMSO was employed. […] For mechanistic studies, a similar procedure was employed, with the addition of four different substrate concentrations: 0.1, 0.2, 0.4, and 0.8 µM. The percentage of inhibition was estimated using the following formula: % Inhibition=100×O.D. of test compound/O.D. of control−100

α-glucosidase = assay: Kinetic (mechanistic) studies of α-glucosidase inhibition; assay type: biochemical, Saccharomyces cerevisiae; conditions: for Ki: four substrate concentrations, Lineweaver–Burk / Dixon plots; for type of inhibition: kinetic studies
Description: In this type of inhibition, the inhibitor binds with the active site residue of enzyme and, therefore, Vmax remains the same, with an increase in the Km. […] In this type of inhibition, both inhibitors—Vmax and Km—are affected by Vmax decreases and Km increases. […] The test samples were dissolved in DMSO. […] (B) Secondary replot of Lineweaver–Burk plot between the slopes of each Lineweaver–Burk plot vs. different concentrations of compound 6f. (C) Dixon plot of reciprocal of rate of reaction (velocities) vs. different concentrations of compound 6f. […] (B) Secondary replot of Lineweaver–Burk plot between the slopes of each Lineweaver–Burk plot vs. different concentrations of compound 7h. (C) Dixon plot of reciprocal of rate of reaction (velocities) vs. different concentrations of compound 7h.

[2] = read-out: IC50, α-glucosidase-inhibitory activity
[3] = read-out: IC50 ± µM, in vitro α-glucosidase-inhibitory activity, Table 2, substrate p-nitrophenyl-α-D-glucopyranoside 0.7 mM, pH 6.8, 37 °C

| SMILES | IC50 [1, 2] | IC50 [1, 3] | Ki (α-glucosidase) | type of inhibition (α-glucosidase) |
| --- | --- | --- | --- | --- |
| COc1ccccc1-c1cn(COC(=O)C2(C)C(OC(C)=O)CCC3(C)C2CCC2(C)C3C(=O)C=C3C4C(C)C(C)CCC4(C)CCC32C)nn1 (stereo not drawn) [6c, (4-(Ortho-methoxyphenyl)-1H-1,2,3-triazol-1-yl) Methyl 3α-acetyloxy-11-oxo-urs-12-en-24-oate] | 1.23 µM | 1.23 ± 0.08 µM |  |  |
| C[C@H]1[C@H](C)CC[C@]2(C)CC[C@]3(C)C(=CC(=O)[C@@H]4[C@@]5(C)CC[C@@H](O)[C@](C)(C(=O)OCn6cc(-c7cccc(Br)c7)nn6)[C@@H]5CC[C@]43C)[C@H]12 [7g] | 1.34 µM | 1.34 ± 0.02 µM |  |  |
| CC(=O)O[C@@H]1CC[C@@]2(C)[C@@H](CC[C@]3(C)[C@@H]2C(=O)C=C2[C@@H]4[C@@H](C)[C@H](C)CC[C@]4(C)CC[C@]23C)[C@@]1(C)C(=O)OCn1cc(-c2ccc(Cl)cc2)nn1 [7i] | 3.18 µM | 3.18 ± 0.69 µM |  |  |
| CC1CCC2(C)CCC3(C)C(=CC(=O)C4C5(C)CCC(O)C(C)(C(=O)OCn6cc(-c7cccc(C(F)(F)F)c7)nn6)C5CCC43C)C2C1C (stereo not shown) [7f] | 2.52 µM | 2.52 ± 0.12 µM |  |  |
| COc1ccccc1-c1cn(COC(=O)[C@@]2(C)[C@H](O)CC[C@@]3(C)[C@H]2CC[C@]2(C)[C@@H]3C(=O)C=C3[C@@H]4[C@@H](C)[C@H](C)CC[C@]4(C)CC[C@]32C)nn1 [7c, (4-(Ortho-methoxyphenyl)-1H-1,2,3-triazol-1-yl) Methyl 3α-hydroxy-11-oxo-urs-12-en-24-oate] | 2.18 µM | 2.18 ± 0.01 µM |  |  |
| CC(=O)OC1CCC2(C)C(CCC3(C)C2C(=O)C=C2C4C(C)C(C)CCC4(C)CCC23C)C1(C)C(=O)OCn1cc(-c2cccc(C(F)(F)F)c2)nn1 (stereo not shown) [6f] | 0.22 µM | 0.22 ± 0.08 µM | 840 ± 7 nM | competitive |
| Cc1ccccc1-c1cn(COC(=O)C2(C)C(O)CCC3(C)C2CCC2(C)C3C(=O)C=C3C4C(C)C(C)CCC4(C)CCC32C)nn1 (stereo not drawn) [7b, (4-(Ortho-tolyl)-1H-1,2,3-triazol-1-yl) Methyl 3α-hydroxy-11-oxo-urs-12-en-24-oate] | 2.11 µM | 2.11 ± 0.1 µM |  |  |
| C#CCOC(=O)C1(C)C(O)CCC2(C)C1CCC1(C)C2C(=O)C=C2C3C(C)C(C)CCC3(C)CCC21C (stereo not drawn) [compound 4, (Prop-2-yne-1-yl) 3α-hydroxy-11-oxo-urs-12-en-24-oate] | 5.32 ± 0.15 µM |  |  |  |
| CC(=O)O[C@@H]1CC[C@@]2(C)[C@@H](CC[C@]3(C)[C@@H]2C(=O)C=C2[C@@H]4[C@@H](C)[C@H](C)CC[C@]4(C)CC[C@]23C)[C@@]1(C)C(=O)OCn1cc(-c2cccc(Br)c2)nn1 [6g] | 0.78 µM | 0.78 ± 0.01 µM | 840 ± 7 nM | competitive |
| CC(=O)OC1CCC2(C)C(CCC3(C)C2C(=O)C=C2C4C(C)C(C)CCC4(C)CCC23C)C1(C)C(=O)OCn1cc(-c2ccc(Br)cc2)nn1 (stereo not shown) [6h] | 0.69 µM | 0.69 ± 0.04 µM |  |  |
| CC(=O)O[C@@H]1CC[C@@]2(C)[C@@H](CC[C@]3(C)[C@@H]2C(=O)C=C2[C@@H]4[C@@H](C)[C@H](C)CC[C@]4(C)CC[C@]23C)[C@@]1(C)C(=O)OCn1cc(-c2ccc(C(F)(F)F)cc2)nn1 [6k] | 1.26 µM | 1.26 ± 0.05 µM |  |  |
| CC(=O)O[C@@H]1CC[C@@]2(C)[C@@H](CC[C@]3(C)[C@@H]2C(=O)C=C2[C@@H]4[C@@H](C)[C@H](C)CC[C@]4(C)CC[C@]23C)[C@@]1(C)C(=O)OCn1cc(-c2ccc(F)cc2)nn1 [7j] | 2.64 µM | 2.64 ± 0.03 µM |  |  |
| CC(=O)O[C@@H]1CC[C@@]2(C)[C@@H](CC[C@]3(C)[C@@H]2C(=O)C=C2[C@@H]4[C@@H](C)[C@H](C)CC[C@]4(C)CC[C@]23C)[C@@]1(C)C(=O)OCn1cc(-c2ccc(F)cc2)nn1 [6j] | 0.58 µM | 0.58 ± 0.04 µM |  |  |
| CC(=O)O[C@@H]1CC[C@@]2(C)[C@@H](CC[C@]3(C)[C@@H]2C(=O)C=C2[C@@H]4[C@@H](C)[C@H](C)CC[C@]4(C)CC[C@]23C)[C@@]1(C)C(=O)OCn1cc(-c2ccccc2C(F)(F)F)nn1 [7d] | 2.62 µM | 2.62 ± 0.06 µM |  |  |
| CC(=O)O[C@@H]1CC[C@@]2(C)[C@@H](CC[C@]3(C)[C@@H]2C(=O)C=C2[C@@H]4[C@@H](C)[C@H](C)CC[C@]4(C)CC[C@]23C)[C@@]1(C)C(=O)OCn1cc(-c2ccc(C(F)(F)F)cc2)nn1 [7k] | 1.39 µM | 1.39 ± 0.11 µM |  |  |
| CC(=O)OC1CCC2(C)C(CCC3(C)C2C(=O)C=C2C4C(C)C(C)CCC4(C)CCC23C)C1(C)C(=O)OCn1cc(-c2ccccc2)nn1 (stereo not drawn) [6a, (4-Phenyl-1H-1,2,3-triazol-1-yl) Methyl 3α-acetyloxy-11-oxo-urs-12-en-24-oate] | 2.02 ± 0.031 µM | 2.02 ± 0.03 µM |  |  |
| C[C@H]1[C@H](C)CC[C@]2(C)CC[C@]3(C)C(=CC(=O)[C@@H]4[C@@]5(C)CC[C@@H](O)[C@](C)(C(=O)OCn6cc(-c7ccc(Br)cc7)nn6)[C@@H]5CC[C@]43C)[C@H]12 [7h] | 0.43 µM | 0.43 ± 0.05 µM | 1180 ± 1.2 nM | mixed |
| CC(=O)O[C@@H]1CC[C@@]2(C)[C@@H](CC[C@]3(C)[C@@H]2C(=O)C=C2[C@@H]4[C@@H](C)[C@H](C)CC[C@]4(C)CC[C@]23C)[C@@]1(C)C(=O)OCn1cc(-c2ccc(Cl)cc2)nn1 [6i] | 3.06 µM | 3.06 ± 0.22 µM |  |  |
| CC(=O)O[C@@H]1CC[C@@]2(C)[C@@H](CC[C@]3(C)[C@@H]2C(=O)C=C2[C@@H]4[C@@H](C)[C@H](C)CC[C@]4(C)CC[C@]23C)[C@@]1(C)C(=O)OCn1cc(-c2ccccc2C(F)(F)F)nn1 [6d] | 2.37 µM | 2.37 ± 0.11 µM |  |  |
| CC(=O)O[C@@H]1CC[C@@]2(C)[C@@H](CC[C@]3(C)[C@@H]2C(=O)C=C2[C@@H]4[C@@H](C)[C@H](C)CC[C@]4(C)CC[C@]23C)[C@@]1(C)C(=O)OCn1cc(-c2ccccc2C)nn1 [6b, (4-(O-tolyl)-1H-1,2,3-triazol-1-yl) Methyl 3α-acetyloxy-11-oxo-urs-12-en-24-oate] | 2.25 ± 0.1 µM | 2.25 ± 0.1 µM |  |  |
| COc1ccc(-c2cn(COC(=O)C3(C)C(OC(C)=O)CCC4(C)C3CCC3(C)C4C(=O)C=C4C5C(C)C(C)CCC5(C)CCC43C)nn2)cc1 (stereo not drawn) [6e, (4-(Para-methoxyphenyl)-1H-1,2,3-triazol-1-yl) Methyl 3α-acetyloxy-11-oxo-urs-12-en-24-oate] | 2.01 µM | 2.01 ± 0.09 µM |  |  |
| C#CCOC(=O)[C@]1(C)C2CC[C@]3(C)C(C(=O)C=C4[C@@H]5[C@@H](C)[C@H](C)CC[C@]5(C)CC[C@]43C)[C@@]2(C)CC[C@H]1OC(C)=O (stereo partly drawn) [compound 3, (Prop-2-yne-1-yl) 3α-acetyloxy-11-oxo-urs-12-en-24-oate] | 4.72 ± 0.52 µM |  |  |  |
| CC1CCC2(C)CCC3(C)C(=CC(=O)C4C5(C)CCC(O)C(C)(C(=O)OCn6cc(-c7ccccc7)nn6)C5CCC43C)C2C1C (stereo not drawn) [7a, (4-Phenyl-1H-1,2,3-triazol-1-yl) Methyl 3α-hydroxy-11-oxo-urs-12-en-24-oate] | 2.31 µM | 2.31 ± 0.17 µM |  |  |
| COc1ccc(-c2cn(COC(=O)C3(C)C(O)CCC4(C)C3CCC3(C)C4C(=O)C=C4C5C(C)C(C)CCC5(C)CCC43C)nn2)cc1 (stereo not drawn) [7e, (4-(Para-methoxyphenyl)-1H-1,2,3-triazol-1-yl) Methyl 3α-hydroxy-11-oxo-urs-12-en-24-oate] | 2.37 µM | 2.37 ± 0.07 µM |  |  |
